Measured values as given in US20220169629A1, “PESTICIDALLY ACTIVE DIAZINE-AMIDE COMPOUNDS” (SYNGENTA CROP PROTECTION AG, priority 2019, published 2022).

Tests used:
Assay type in all cases: in vivo
[1] = test system: Myzus persicae (green peach aphid); test: Example B9: Myzus persicae (green peach aphid), 96-well sucrose solution; conditions: 120 h, application rate of 50 ppm, 5 days after infestation
Description: Example B9: Myzus persicae (Green Peach Aphid)
Test compounds prepared from 10′000 ppm DMSO stock solutions were applied by a liquid handling robot into 96-well microtiter plates and mixed with a sucrose solution. Parafilm was stretched over the 96-well microtiter plate and a plastic stencil with 96 holes was placed onto the plate. Aphids were sieved into the wells directly onto the Parafilm. The infested plates were closed with a gel blotting card and a second plastic stencil and then turned upside down. The samples were assessed for mortality 5 days after infestation.

[2] = test system: Spodoptera littoralis (Egyptian cotton leaf worm); test: Example B8: Spodoptera littoralis (Egyptian cotton leaf worm), uptake by lettuce roots from agar; conditions: 144 h, test rate of 12.5 ppm, 6 days after infestation, compound absorbed by lettuce roots, read-out: control in at least one of the three categories (mortality, anti-feeding, or growth inhibition)
Description: Example B8: Spodoptera littoralis (Egyptian Cotton Leaf Worm)
Test compounds were applied by pipette from 10′000 ppm DMSO stock solutions into 24-well plates and mixed with agar. Lettuce seeds were placed onto the agar and the multi well plate was closed by another plate which contained also agar. After 7 days the compound was absorbed by the roots and the lettuce grew into the lid plate. The lettuce leaves were then cut off into the lid plate. Spodoptera eggs were pipetted through a plastic stencil onto a humid gel blotting paper and the lid plate was closed with it. The samples were assessed for mortality, anti-feedant effect and growth inhibition in comparison to untreated samples 6 days after infestation.

[3] = test system: Plutella xylostella (diamondback moth); test: Example B10: Plutella xylostella (diamondback moth), 96-well artificial diet; conditions: 216 h, application rate of 500 ppm, 9 days after infestation, eggs/L1 larvae
Procedure: Example B10: Plutella xylostella (Diamondback Moth)
96-well microtiter plates containing artificial diet were treated with aqueous test solutions, prepared from 10′000 ppm DMSO stock solutions, by a liquid handling robot. After drying, eggs (˜30 per well) were infested onto a netted lid which was suspended above the diet. The eggs hatch and L1 larvae move down to the diet. The samples were assessed for mortality 9 days after infestation.

[4] = test system: Plutella xylostella (diamond back moth); test: Example B5: Plutella xylostella (diamond back moth), artificial diet, 24-well, eggs; conditions: 192 h, application rate of 200 ppm, 8 days after infestation, read-out: control in at least one of the two categories (mortality or growth inhibition)
Procedure: Example B5: Plutella xylostella (Diamond Back Moth)
24-well microtiter plates with artificial diet were treated with aqueous test solutions prepared from 10′000 ppm DMSO stock solutions by pipetting. After drying, Plutella eggs were pipetted through a plastic stencil onto a gel blotting paper and the plate was closed with it. The samples were assessed for mortality and growth inhibition in comparison to untreated samples 8 days after infestation.

[5] = test system: Chilo suppressalis (striped rice stemborer); test: Example B4: Chilo suppressalis (striped rice stemborer), artificial diet, L2 larvae; conditions: 144 h, application rate of 200 ppm, 6 days after infestation, L2 larvae on artificial diet, read-out: control in at least one of the three categories (mortality, anti-feeding or growth inhibition)
Procedure: Example B4: Chilo suppressalis (Striped rice stemborer)
24-well microtiter plates with artificial diet were treated with aqueous test solutions prepared from 10′000 ppm DMSO stock solutions by pipetting. After drying, the plates were infested with L2 larvae (6-8 per well). The samples were assessed for mortality, anti-feeding effect, and growth inhibition in comparison to untreated samples 6 days after infestation. Control of Chilo suppressalis by a test sample is given when at least one of the categories mortality, anti-feedant effect, and growth inhibition is higher than the untreated sample.

[6] = test system: Spodoptera littoralis (Egyptian cotton leaf worm); test: Example B7: Spodoptera littoralis (Egyptian cotton leaf worm), sprayed cotton leaf discs, L1 larvae; conditions: foliar, 72 h, application rate of 200 ppm, 3 days after infestation, L1 larvae on cotton leaf discs, read-out: control in at least one of the three categories (mortality, anti-feeding or growth inhibition)
Procedure: Example B7: Spodoptera littoralis (Egyptian Cotton Leaf Worm)
Cotton leaf discs were placed onto agar in 24-well microtiter plates and sprayed with aqueous test solutions prepared from 10′000 ppm DMSO stock solutions. After drying the leaf discs were infested with five L1 larvae. The samples were assessed for mortality, anti-feeding effect, and growth inhibition in comparison to untreated samples 3 days after infestation. Control of Spodoptera littoralis by a test sample is given when at least one of the categories mortality, anti-feedant effect, and growth inhibition is higher than the untreated sample.

[7] = test system: Myzus persicae (green peach aphid); test: Example B6: Myzus persicae (green peach aphid), intrinsic activity; conditions: 120 h, test rate of 12 ppm, 5 days after infestation, sucrose solution, infested pea seedlings
Description: Example B6: Myzus persicae (Green Peach Aphid): Intrinsic Activity
Test compounds prepared from 10′000 ppm DMSO stock solutions were applied by pipette into 24-well microtiter plates and mixed with sucrose solution. The plates were closed with a stretched Parafilm. A plastic stencil with 24 holes was placed onto the plate and infested pea seedlings were placed directly on the Parafilm. The infested plate was closed with a gel blotting paper and another plastic stencil and then turned upside down. The samples were assessed for mortality 5 days after infestation.

[8] = test system: Diabrotica balteata (corn root worm); test: Example B1: Diabrotica balteata (corn root worm), sprayed maize sprouts, L2 larvae; conditions: 96 h, application rate of 200 ppm, 4 days after infestation, L2 larvae on maize sprouts, read-out: control in at least one of the two categories (mortality or growth inhibition)
Procedure: Example B1: Diabrotica Balteata (Corn Root Worm)
Maize sprouts placed onto an agar layer in 24-well microtiter plates were treated with aqueous test solutions prepared from 10′000 ppm DMSO stock solutions by spraying. After drying, the plates were infested with L2 larvae (6 to 10 per well). The samples were assessed for mortality and growth inhibition in comparison to untreated samples 4 days after infestation.

[9] = test system: Euschistus heros (neotropical brown stink bug); test: Example B2: Euschistus heros (neotropical brown stink bug), sprayed soybean leaves, N2 nymphs; conditions: 120 h, application rate of 200 ppm, 5 days after infestation, N2 nymphs on soybean leaves, read-out: control in at least one of the two categories (mortality or growth inhibition)
Procedure: Example B2: Euschistus heros (Neotropical Brown Stink Bug)
Soybean leaves on agar in 24-well microtiter plates were sprayed with aqueous test solutions prepared from 10′000 ppm DMSO stock solutions. After drying the leaves were infested with N2 nymphs. The samples were assessed for mortality and growth inhibition in comparison to untreated samples 5 days after infestation.

[10] = test system: Bemisia tabaci (cotton white fly); test: Example B3: Bemisia tabaci (cotton white fly), feeding/contact activity; conditions: foliar, 144 h, application rate of 200 ppm, 6 days after incubation, adult white flies on cotton leaf discs
Procedure: Example B3: Bemisia tabaci (Cotton White Fly): Feeding/Contact Activity
Cotton leaf discs were placed on agar in 24-well microtiter plates and sprayed with aqueous test solutions prepared from 10′000 ppm DMSO stock solutions. After drying the leaf discs were infested with adult white flies. The samples were checked for mortality 6 days after incubation.

CC(NC(=O)c1cc(Br)cc(C(F)(F)F)c1)c1nccnc1-c1ncc(OC(F)F)cn1 (stereo not drawn) [Compound P23, 3-bromo-N-[1-[3-[5-(difluoromethoxy)pyrimidin-2-yl]pyrazin-2-yl]ethyl]-5-(trifluoromethyl)benzamide]
≥ 80%: mortality at 50 ppm [1] | percent control (mortality, anti-feeding or growth inhibition) at 12.5 ppm [2] | mortality at 500 ppm [3] | percent control (mortality or growth inhibition) at 200 ppm [4] | control at 200 ppm [5] | percent control (mortality, anti-feeding or growth inhibition) at 200 ppm [6] | mortality at 12 ppm [7] | percent control (mortality or growth inhibition) at 200 ppm [8]

C[C@H](NC(=O)c1cc(C(F)(F)F)cc(C(F)(F)F)c1)c1nccnc1-c1ccc(OC(F)F)cn1 [Compound P24, N-[(1S)-1-[3-[5-(difluoromethoxy)-2-pyridyl]pyrazin-2-yl]ethyl]-3,5-bis(trifluoromethyl)benzamide]
≥ 80%: percent control (mortality, anti-feeding or growth inhibition) at 12.5 ppm [2] | mortality at 500 ppm [3] | percent control (mortality or growth inhibition) at 200 ppm [4] | control at 200 ppm [5] | percent control (mortality, anti-feeding or growth inhibition) at 200 ppm [6] | percent control (mortality or growth inhibition) at 200 ppm [9] | percent control (mortality or growth inhibition) at 200 ppm [8]

CC(NC(=O)c1cc(Br)cc(C(F)(F)F)c1)c1nccnc1-c1ncc(OCC(F)F)cn1 (stereo not drawn) [Compound P35, 3-bromo-N-[1-[3-[5-(2,2-difluoroethoxy)pyrimidin-2-yl]pyrazin-2-yl]ethyl]-5-(trifluoromethyl)benzamide]
≥ 80%: percent control (mortality, anti-feeding or growth inhibition) at 12.5 ppm [2] | mortality at 200 ppm [10] | percent control (mortality or growth inhibition) at 200 ppm [4] | control at 200 ppm [5] | percent control (mortality, anti-feeding or growth inhibition) at 200 ppm [6] | percent control (mortality or growth inhibition) at 200 ppm [9] | mortality at 12 ppm [7] | percent control (mortality or growth inhibition) at 200 ppm [8]

CC(NC(=O)c1cc(Cl)cc(C(F)(F)F)c1)c1nccnc1-c1ncc(OCC(F)(F)F)cn1 (stereo not drawn) [Compound P37, 3-chloro-N-[1-[3-[5-(2,2,2-trifluoroethoxy)pyrimidin-2-yl]pyrazin-2-yl]ethyl]-5-(trifluoromethyl)benzamide]
≥ 80%: percent control (mortality, anti-feeding or growth inhibition) at 12.5 ppm [2] | percent control (mortality or growth inhibition) at 200 ppm [4] | control at 200 ppm [5] | percent control (mortality, anti-feeding or growth inhibition) at 200 ppm [6] | percent control (mortality or growth inhibition) at 200 ppm [9] | percent control (mortality or growth inhibition) at 200 ppm [8]

CC(NC(=O)c1cc(C(F)(F)F)cc(C(F)(F)F)c1)c1nccnc1-c1ncc(OCC(F)F)cn1 (stereo not drawn) [Compound P33, N-[1-[3-[5-(2,2-difluoroethoxy)pyrimidin-2-yl]pyrazin-2-yl]ethyl]-3,5-bis(trifluoromethyl)benzamide]
≥ 80%: percent control (mortality or growth inhibition) at 200 ppm [4] | control at 200 ppm [5] | percent control (mortality, anti-feeding or growth inhibition) at 200 ppm [6] | percent control (mortality or growth inhibition) at 200 ppm [9] | percent control (mortality or growth inhibition) at 200 ppm [8]

CC(NC(=O)c1cc(OC(F)F)cc(C(F)(F)F)c1)c1nccnc1-c1ncc(OCC(F)(F)F)cn1 (stereo not drawn) [Compound P3, 3-(difluoromethoxy)-N-[1-[3-[5-(2,2,2-trifluoroethoxy)pyrimidin-2-yl]pyrazin-2-yl]ethyl]-5-(trifluoromethyl)benzamide]
≥ 80%: percent control (mortality or growth inhibition) at 200 ppm [4] | control at 200 ppm [5] | percent control (mortality, anti-feeding or growth inhibition) at 200 ppm [6] | percent control (mortality or growth inhibition) at 200 ppm [9] | mortality at 12 ppm [7] | percent control (mortality or growth inhibition) at 200 ppm [8]

CC(NC(=O)c1cc(OC(F)F)cc(C(F)(F)F)c1)c1nccnc1-c1ncc(OCC(F)F)cn1 (stereo not drawn) [Compound P28, N-[1-[3-[5-(2,2-difluoroethoxy)pyrimidin-2-yl]pyrazin-2-yl]ethyl]-3-(difluoromethoxy)-5-(trifluoromethyl)benzamide]
≥ 80%: mortality at 50 ppm [1] | mortality at 500 ppm [3] | percent control (mortality or growth inhibition) at 200 ppm [4] | control at 200 ppm [5] | percent control (mortality, anti-feeding or growth inhibition) at 200 ppm [6] | percent control (mortality or growth inhibition) at 200 ppm [9] | mortality at 12 ppm [7] | percent control (mortality or growth inhibition) at 200 ppm [8]

CC(NC(=O)c1cc(OC(F)F)cc(C(F)(F)F)c1)c1nccnc1-c1ncc(OC(F)F)cn1 (stereo not drawn) [Compound P26, 3-(difluoromethoxy)-N-[1-[3-[5-(difluoromethoxy)pyrimidin-2-yl]pyrazin-2-yl]ethyl]-5-(trifluoromethyl)benzamide]
≥ 80%: mortality at 50 ppm [1] | mortality at 500 ppm [3] | percent control (mortality or growth inhibition) at 200 ppm [4] | control at 200 ppm [5] | percent control (mortality, anti-feeding or growth inhibition) at 200 ppm [6] | mortality at 12 ppm [7] | percent control (mortality or growth inhibition) at 200 ppm [8]

C[C@H](NC(=O)c1cc(C(F)(F)F)cc(C(F)(F)F)c1)c1nccnc1-c1ccc(C#N)cn1 [Compound P34, N-[(1S)-1-[3-(5-cyano-2-pyridyl)pyrazin-2-yl]ethyl]-3,5-bis(trifluoromethyl)benzamide]
≥ 80%: percent control (mortality, anti-feeding or growth inhibition) at 12.5 ppm [2] | mortality at 500 ppm [3] | percent control (mortality or growth inhibition) at 200 ppm [4] | control at 200 ppm [5] | percent control (mortality, anti-feeding or growth inhibition) at 200 ppm [6] | percent control (mortality or growth inhibition) at 200 ppm [8]

CC(NC(=O)c1cc(OCC(F)F)cc(C(F)(F)F)c1)c1nccnc1-c1ncc(OC(F)F)cn1 (stereo not drawn) [Compound P27, 3-(2,2-difluoroethoxy)-N-[1-[3-[5-(difluoromethoxy)pyrimidin-2-yl]pyrazin-2-yl]ethyl]-5-(trifluoromethyl)benzamide]
≥ 80%: mortality at 500 ppm [3] | percent control (mortality or growth inhibition) at 200 ppm [4] | control at 200 ppm [5] | percent control (mortality, anti-feeding or growth inhibition) at 200 ppm [6] | mortality at 12 ppm [7]
